Where two headings read alike, the source gives them in different places.
Columns and labels:
[1] = tested on: human low density lipoproteins (LDLs); assay: protective activity against oxidation of human LDLs induced by copper sulphate (TBARS determination); type: biochemical; settings: copper sulphate 5 μM, 3 hours at 37° C., read-out: IC50, protection against the oxidation of LDLs
Method: The dose-effect relationship of those compounds was compared with that of probucol and a soluble analogue of vitamin E, trolox.
The anti-oxidant activity of the compounds was measured according to the method of Wallin et al. (Analytical Biochemistry, 1993, 208, 10-15).
Human LDLs are incubated for 3 hours at 37° C. in the presence of an oxidising agent, copper sulphate at a concentration of 5 μM, and of the compound to be tested at concentrations ranging from 10^-8 M to 2.5×10^-6 M. A non-oxidised control (LDLs only) and an oxidised control (LDLs plus copper sulphate) are also included in each of the series of tests.
The products of the LDL oxidation reaction are quantified by the colorimetric determination of "thiobarbituric acid reactive substances" (TBARS).
The protective activity of the tested compounds is expressed by the IC50 value, which corresponds to the concentration of product required to inhibit by 50% the oxidation of LDLs observed in the absence of product. The IC50 value was calculated from the dose-response curve.

[2] = tested on: plasma lipids (triglycerides, total cholesterol); assay: hypolipaemic activity in vivo in a diet-induced model of combined hyperlipaemia in the hamster; parameters: species or system Golden Syrian hamster; settings: 200 mg/kg/day per os, 1 week; for change in vivo at 200 mg/kg: Mesocricetus auratus, po, 168 h, hamsters on lipid-rich diet, versus control group, bezafibrate: mean ± sem of five experiments; for hypocholesterolaemic effect compared with bezafibrate (in words) / triglyceride-lowering effectiveness compared with bezafibrate (in words): hamster, bezafibrate 200 mg/kg/day
Method: The hypolipaemic activity of certain representative compounds of the invention was evaluated in vivo in a diet-induced model of combined hyperlipaemia in the hamster.
Golden Syrian hamsters are given a diet rich in lipids (standard diet+0.5% cholesterol+10% cocoa oil) for 3 weeks before the beginning of treatment. That diet induces hypercholesterolaemia and hypertriglyceridaemia.
The products are prepared in tragacanth gum and are administered per os by forced gastric feeding for 1 week at a dose of 200 mg/kg/day. Each product is tested on a group of 6 animals. A placebo group (control) and a group of animals treated with a reference product (bezafibrate at a dose of 200 mg/kg/day) are included in each experiment.
At the end of the treatment, the animals are anaesthetised with ether. Blood is removed by abdominal puncture and the triglycerides and total cholesterol in the serums are determined. Five independent experiments were carried out in accordance with that protocol in order to evaluate the hypolipaemic effect of thirteen compounds of this invention.
The results are shown in Table B. The effect of the treatment is expressed as a percentage variation by comparison with the control group, calculated from the means of the absolute values of triglycerides and of total cholesterol. A negative value thus reflects a hypolipaemic effect of the treatment indicated. The values shown for bezafibrate represent the mean values (±sem) of five experiments.

[3] = read-out: Total cholesterol (% variation/control)
[4] = read-out: Triglycerides (% variation/control)

SMILES | IC50 [1] [nM] | change in vivo at 200 mg/kg [2, 3] [%] | change in vivo at 200 mg/kg [2, 4] [%] | hypocholesterolaemic effect compared with bezafibrate (in words) [2] | triglyceride-lowering effectiveness compared with bezafibrate (in words) [2]
Cc1c(C)c2c(c(C)c1O)CCC(C)(C=CCCOc1ccc(OCCCC(C)(C)C(=O)O)cc1)O2 (racemic) [Example 17, R,S-2,2-dimethyl-5-{4-[4-(6-hydroxy-2,5,7,8-tetramethyl-3,4-dihydrobenzopyran-2-yl)but-3-enyloxy]phenoxy}pentanoic acid] | 960 | – | – | – | –
Cc1c(C)c2c(c(C)c1O)CCC(C)(CCCCOc1ccc(OCCCC(C)(C)C(=O)O)cc1)O2 (racemic) [Example 18, R,S -2,2-dimethyl-5-{4-[4-(6-hydroxy-2,5,7,8-tetramethyl-3,4-dihydrobenzopyran-2-yl)butyloxy]phenoxy}pentanoic acid] | 720 | -61 | -79 | – | –
Cc1c(C)c2c(c(C)c1O)CCC(C)(CCCc1cccc(OCCCC(C)(C)C(=O)O)c1)O2 (racemic) [Example 19, R,S-2,2-dimethyl-5-{3-[3-(6-hydroxy-2,5,7,8-tetramethyl-3,4-dihydrobenzopyran-2-yl)-propyl]phenoxy}pentanoic acid] | 680 | – | – | – | –
CC(C)(Oc1ccc(CCNC(=O)c2ccc(Cl)cc2)cc1)C(=O)O [Bezafibrate, bezafibrate, reference compound] | – | -48 ± 4 | -46 ± 19 | – | –
CC(C)(CCCOc1ccc(CCSc2cc(C(C)(C)C)c(O)c(C(C)(C)C)c2)cc1)C(=O)O [Example 1, 2,2-Dimethyl-5-{4-[2-(3,5-di-tert-butyl-4-hydroxyphenylthio)ethyl]phenoxy}pentanoic acid] | 420 | – | – | – | –
CC(C)(CCCOc1ccc(CCSc2cc(C(C)(C)C)c(O)c(C(C)(C)C)c2)cc1)C(=O)O [Example 2, 2,2-dimethyl-5-{4-[2-(3,5-di-tert-butyl-4-hydroxyphenylthio)ethyl]phenoxy}pentanoic acid] | 210 | -52 | -82 | hypocholesterolaemic effect at least as great as bezafibrate | statistically at least as effective as bezafibrate
CC(C)(CCCOc1ccc(CCCSc2cc(C(C)(C)C)c(O)c(C(C)(C)C)c2)cc1)C(=O)O [Example 3, 2,2-dimethyl-5-{4-[3-(3,5-di-tert-butyl-4-hydroxyphenylthio)propyl]phenoxy}pentanoic acid] | 530 | -77 | -87 | hypocholesterolaemic effect at least as great as bezafibrate | statistically at least as effective as bezafibrate
Cc1cc(SCCCc2ccc(OCCCC(C)(C)C(=O)O)cc2)c(C)c(C)c1O [Example 4, 2,2-dimethyl-5-{4-[3-(4-hydroxy-2,3,5-trimethylphenylthio)propyl]phenoxy}pentanoic acid] | 460 | -48 | -77 | – | –
CC(C)(CCCOc1ccc(OCCCSc2cc(C(C)(C)C)c(O)c(C(C)(C)C)c2)cc1)C(=O)O [Example 5, 2,2-dimethyl-5-{4-[3-(3,5-di-tert-butyl-4-hydroxyphenylthio)propyloxy]phenoxy}pentanoic acid] | 550 | – | – | – | –
Cc1cc(SCCCOc2ccc(OCCCC(C)(C)C(=O)O)cc2)c(C)c(C)c1O [Example 6, 2,2-dimethyl-5-{4-[3-(4-hydroxy-2,3,5-trimethylphenylthio)propyloxy]phenoxy}pentanoic acid] | 170 | -39 | -59 | – | –
Cc1cc(SCCc2cccc(OCCCC(C)(C)C(=O)O)c2)c(C)c(C)c1O [Example 7, 2,2-dimethyl-5-{3-[2-(4-hydroxy-2,3,5-trimethylphenylthio)ethyl]phenoxy}pentanoic acid] | 68 | -47 | -83 | hypocholesterolaemic effect at least as great as bezafibrate | statistically at least as effective as bezafibrate
CC(C)(CCCOc1cccc(CCSc2cc(C(C)(C)C)c(O)c(C(C)(C)C)c2)c1)C(=O)O [Example 8, 2,2-dimethyl-5-{3-[2-(3,5-di-tert-butyl-4-hydroxyphenylthio)ethyl]phenoxy}pentanoic acid] | 380 | -59 | -59 | – | –
Cc1cc(OCCc2ccc(OCCCC(C)(C)C(=O)O)cc2)c(C)c(C)c1O [Example 9, 2,2-dimethyl-5-{4-[2-(4-hydroxy-2,3,5-trimethylphenoxy)ethyl]phenoxy}pentanoic acid] | 200 | – | – | – | –
CC(C)(CCCOc1ccc(CCCOc2cc(C(C)(C)C)c(O)c(C(C)(C)C)c2)cc1)C(=O)O [Example 10, 2,2-dimethyl-5-{4-[3-(3,5-di-tert-butyl-4-hydroxyphenoxy)propyl]phenoxy}pentanoic acid] | 240 | – | – | – | –
Cc1cc(OCCCOc2ccc(OCCCC(C)(C)C(=O)O)cc2)c(C)c(C)c1O [Example 11, 2,2-dimethyl-5-{4-[3-(4-hydroxy-2,3,5-trimethylphenoxy)propyloxy]phenoxy}pentanoic acid] | 190 | -55 | -60 | – | –
CC(C)(CCCOc1ccc(OCCCOc2cc(C(C)(C)C)c(O)c(C(C)(C)C)c2)cc1)C(=O)O [Example 12, 2,2-dimethyl-5-{4-[3-(3,5-di-tert-butyl-4-hydroxyphenoxy)propyloxy]phenoxy}pentanoic acid] | 640 | -63 | -84 | hypocholesterolaemic effect at least as great as bezafibrate | statistically at least as effective as bezafibrate
CC(C)(CCCOc1cccc(CCOc2cc(C(C)(C)C)c(O)c(C(C)(C)C)c2)c1)C(=O)O [Example 13, 2,2-dimethyl-5-{3-[2-(3,5-di-tert-butyl-4-hydroxyphenoxy)ethyl]phenoxy}pentanoic acid] | 300 | -68 | -84 | hypocholesterolaemic effect at least as great as bezafibrate | statistically at least as effective as bezafibrate
Cc1cc(OCCc2cccc(OCCCC(C)(C)C(=O)O)c2)c(C)c(C)c1O [Example 14, 2,2-dimethyl-5-{3-[2-(4-hydroxy-2,3,5-trimethylphenoxy)ethyl]phenoxy}pentanoic acid] | 88 | – | – | – | –
Cc1cc(OCCCc2ccc(OCCCC(C)(C)C(=O)O)cc2)c(C)c(C)c1O [Example 15, 2,2-dimethyl-5-{4-[3-(4-hydroxy-2,3,5-trimethylphenoxy)propyl]phenoxy}pentanoic acid] | 97 | -77 | -93 | hypocholesterolaemic effect at least as great as bezafibrate | statistically at least as effective as bezafibrate
CC(C)(CCCOc1ccc(CCOc2cc(C(C)(C)C)c(O)c(C(C)(C)C)c2)cc1)C(=O)O [Example 16, 2,2-dimethyl-5-{4-[2-(4-hydroxy-3,5-di-tert-butylphenoxy)ethyl]phenoxy}pentanoic acid] | 770 | -66 | -54 | – | –
CC(C)(CCCOc1cccc(CCCc2cc(C(C)(C)C)c(O)c(C(C)(C)C)c2)c1)C(=O)O [Example 20, 2,2-dimethyl-5-{3-[3-(4-hydroxy-3,5-di-tert-butylphenyl)propyl]phenoxy}pentanoic acid] | 1100 | -58 | -71 | – | –
CC(C)(Sc1cc(C(C)(C)C)c(O)c(C(C)(C)C)c1)Sc1cc(C(C)(C)C)c(O)c(C(C)(C)C)c1 [Probucol, probucol, reference compound] | 5800 | – | – | – | –
Cc1c(C)c2c(c(C)c1O)CCC(C)(C(=O)O)O2 (centres unmarked) [Trolox, trolox, reference compound] | 1600 | – | – | – | –

Reference: patent publication US5734077A, “Substituted 2,2-dimethyl-omega-phenoxyalkanoic acids and esters” (Adir ET Compagnie, priority 1995, dated 1998)
